The text below walks through data of ChEMBL document CHEMBL1212897 (J Med Chem, 2010).

Data set [1] deals with T1, Mineralocorticoid receptor (Homo sapiens, UniProt P08235).
T1 sequence (P08235 whole entry): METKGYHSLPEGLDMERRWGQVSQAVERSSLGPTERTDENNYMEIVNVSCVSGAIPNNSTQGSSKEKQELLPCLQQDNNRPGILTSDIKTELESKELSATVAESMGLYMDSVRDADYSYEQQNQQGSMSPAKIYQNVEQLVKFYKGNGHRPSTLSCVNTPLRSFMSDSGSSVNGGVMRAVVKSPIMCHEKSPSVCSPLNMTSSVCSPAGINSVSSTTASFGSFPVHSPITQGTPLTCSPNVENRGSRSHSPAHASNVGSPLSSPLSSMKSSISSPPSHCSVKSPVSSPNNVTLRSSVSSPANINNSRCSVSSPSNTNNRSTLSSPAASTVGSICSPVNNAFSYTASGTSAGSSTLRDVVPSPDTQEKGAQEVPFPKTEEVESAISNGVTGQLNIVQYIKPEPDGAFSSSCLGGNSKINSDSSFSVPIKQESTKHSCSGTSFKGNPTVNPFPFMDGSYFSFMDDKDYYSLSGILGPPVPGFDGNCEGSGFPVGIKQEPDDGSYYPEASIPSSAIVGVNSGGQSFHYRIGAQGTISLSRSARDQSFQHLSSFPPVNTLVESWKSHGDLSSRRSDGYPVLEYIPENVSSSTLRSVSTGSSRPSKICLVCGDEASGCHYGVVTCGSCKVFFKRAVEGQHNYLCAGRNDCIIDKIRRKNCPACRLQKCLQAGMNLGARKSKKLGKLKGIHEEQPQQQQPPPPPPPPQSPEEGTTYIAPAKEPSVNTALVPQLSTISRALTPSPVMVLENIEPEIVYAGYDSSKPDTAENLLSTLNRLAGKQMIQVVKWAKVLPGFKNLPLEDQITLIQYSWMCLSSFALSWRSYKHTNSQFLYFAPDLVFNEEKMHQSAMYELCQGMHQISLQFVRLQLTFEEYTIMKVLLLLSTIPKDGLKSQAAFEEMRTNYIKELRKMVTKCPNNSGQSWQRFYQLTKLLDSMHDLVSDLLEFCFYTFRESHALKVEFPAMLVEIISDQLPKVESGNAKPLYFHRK
It is filed as functional, cell-based, Huh-7.

The target of data set [2] is Voltage-gated inwardly rectifying potassium channel KCNH2 (Homo sapiens, UniProt Q12809).
The target in another data set is T2, Progesterone receptor (Homo sapiens, UniProt P06401).
T2 sequence (P06401 whole entry): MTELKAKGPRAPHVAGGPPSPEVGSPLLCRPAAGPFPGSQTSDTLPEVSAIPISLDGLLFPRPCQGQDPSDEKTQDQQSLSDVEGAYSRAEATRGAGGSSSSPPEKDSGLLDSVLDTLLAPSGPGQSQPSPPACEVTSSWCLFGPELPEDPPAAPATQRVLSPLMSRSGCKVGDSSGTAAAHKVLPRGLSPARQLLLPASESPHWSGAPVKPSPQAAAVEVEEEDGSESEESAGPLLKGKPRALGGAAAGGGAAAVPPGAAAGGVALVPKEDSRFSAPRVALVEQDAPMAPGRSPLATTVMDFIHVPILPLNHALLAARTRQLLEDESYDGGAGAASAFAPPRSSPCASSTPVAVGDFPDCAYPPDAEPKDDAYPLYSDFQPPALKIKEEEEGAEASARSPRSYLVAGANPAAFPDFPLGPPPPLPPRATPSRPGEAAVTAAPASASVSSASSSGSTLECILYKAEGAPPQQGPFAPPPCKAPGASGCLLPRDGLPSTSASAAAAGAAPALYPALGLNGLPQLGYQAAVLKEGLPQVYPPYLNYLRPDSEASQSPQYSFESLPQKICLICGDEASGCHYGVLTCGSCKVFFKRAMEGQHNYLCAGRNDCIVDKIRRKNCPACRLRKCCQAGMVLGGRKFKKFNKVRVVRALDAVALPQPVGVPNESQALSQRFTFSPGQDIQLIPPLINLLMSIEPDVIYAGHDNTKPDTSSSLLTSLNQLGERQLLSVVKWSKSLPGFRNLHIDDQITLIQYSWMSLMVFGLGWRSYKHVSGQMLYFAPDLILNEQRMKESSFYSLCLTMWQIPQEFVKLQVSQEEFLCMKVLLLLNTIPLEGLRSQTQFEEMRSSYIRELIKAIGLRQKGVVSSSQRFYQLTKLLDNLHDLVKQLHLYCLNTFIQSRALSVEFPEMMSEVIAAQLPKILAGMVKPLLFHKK
Put plainly: Antagonist activity at progesterone receptor. It is filed as functional.

Data set [3] in a line: Clearance in Sprague-Dawley rat at 2 mg/kg, iv. It is filed as ADME, organism-based. Also on record: dose 2 mg/kg, route intravenous. The settings on record: in vivo.
Data set [4] is described as follows: Volume of distribution at steady state in Sprague-Dawley rat at 2 mg/kg, iv. The data set is classed as ADME, organism-based. The arrangement: dose 2 mg/kg, route intravenous. The settings on record: in vivo, read-out: Vdss.
Data set [5] is described as follows: Half life in Sprague-Dawley rat at 2 mg/kg, iv. It is filed as ADME, organism-based. The note with it: in vivo. The arrangement: dose 2 mg/kg, route intravenous.
Data set [6] is described as follows: Oral bioavailability in Sprague-Dawley rat at 2 mg/kg. It is filed as ADME, organism-based. The settings on record: in vivo.
Another data set deals with T3, Androgen receptor (Homo sapiens, UniProt P10275).
T3 sequence (P10275 whole entry): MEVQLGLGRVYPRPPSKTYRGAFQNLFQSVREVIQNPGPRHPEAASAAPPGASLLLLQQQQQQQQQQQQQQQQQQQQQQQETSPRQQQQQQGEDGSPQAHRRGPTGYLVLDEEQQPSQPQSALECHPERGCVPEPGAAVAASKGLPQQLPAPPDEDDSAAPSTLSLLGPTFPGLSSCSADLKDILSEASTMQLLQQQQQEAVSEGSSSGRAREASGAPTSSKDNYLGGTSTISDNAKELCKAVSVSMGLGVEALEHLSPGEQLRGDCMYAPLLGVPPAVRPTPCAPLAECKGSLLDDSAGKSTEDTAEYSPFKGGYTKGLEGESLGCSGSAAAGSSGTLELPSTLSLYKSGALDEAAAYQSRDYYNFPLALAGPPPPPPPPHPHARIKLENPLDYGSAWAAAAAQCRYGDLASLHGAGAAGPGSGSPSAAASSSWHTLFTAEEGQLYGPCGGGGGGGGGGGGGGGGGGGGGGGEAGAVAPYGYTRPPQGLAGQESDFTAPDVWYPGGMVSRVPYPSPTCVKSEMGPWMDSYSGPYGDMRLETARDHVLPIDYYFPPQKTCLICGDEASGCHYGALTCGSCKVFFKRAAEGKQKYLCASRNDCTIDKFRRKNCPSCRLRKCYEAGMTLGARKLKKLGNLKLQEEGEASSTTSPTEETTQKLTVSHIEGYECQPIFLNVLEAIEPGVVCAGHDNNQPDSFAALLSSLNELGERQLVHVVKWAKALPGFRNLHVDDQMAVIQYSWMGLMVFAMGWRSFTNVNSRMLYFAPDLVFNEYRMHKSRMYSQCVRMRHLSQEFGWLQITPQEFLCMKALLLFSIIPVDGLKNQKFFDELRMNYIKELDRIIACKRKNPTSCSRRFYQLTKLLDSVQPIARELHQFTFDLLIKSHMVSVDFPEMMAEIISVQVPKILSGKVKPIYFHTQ

A further data set concerns the target T4, Glucocorticoid receptor (Homo sapiens, UniProt P04150).
T4 sequence (P04150 whole entry): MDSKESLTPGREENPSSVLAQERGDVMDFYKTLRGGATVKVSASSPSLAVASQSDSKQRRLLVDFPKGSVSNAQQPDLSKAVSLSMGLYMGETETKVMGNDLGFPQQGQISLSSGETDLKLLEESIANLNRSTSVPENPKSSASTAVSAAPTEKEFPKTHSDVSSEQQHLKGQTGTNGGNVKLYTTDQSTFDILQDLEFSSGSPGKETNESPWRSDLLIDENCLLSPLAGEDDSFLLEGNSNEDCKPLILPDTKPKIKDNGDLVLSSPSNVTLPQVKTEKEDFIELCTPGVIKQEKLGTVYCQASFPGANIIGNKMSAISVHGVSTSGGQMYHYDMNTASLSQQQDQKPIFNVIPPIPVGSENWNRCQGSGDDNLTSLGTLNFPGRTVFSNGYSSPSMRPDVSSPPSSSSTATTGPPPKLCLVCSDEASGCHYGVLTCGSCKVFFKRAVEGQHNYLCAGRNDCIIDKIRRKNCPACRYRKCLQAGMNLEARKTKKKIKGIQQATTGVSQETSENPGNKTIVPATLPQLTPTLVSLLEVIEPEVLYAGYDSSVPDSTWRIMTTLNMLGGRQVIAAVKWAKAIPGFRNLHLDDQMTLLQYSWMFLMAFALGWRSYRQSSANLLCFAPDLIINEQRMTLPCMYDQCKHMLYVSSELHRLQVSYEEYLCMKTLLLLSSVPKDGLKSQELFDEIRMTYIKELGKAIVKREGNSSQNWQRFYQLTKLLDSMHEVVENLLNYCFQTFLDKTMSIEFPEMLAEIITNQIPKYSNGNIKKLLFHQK

The next data set deals with T5, Estrogen receptor (Homo sapiens, UniProt P03372).
T5 sequence (P03372 whole entry): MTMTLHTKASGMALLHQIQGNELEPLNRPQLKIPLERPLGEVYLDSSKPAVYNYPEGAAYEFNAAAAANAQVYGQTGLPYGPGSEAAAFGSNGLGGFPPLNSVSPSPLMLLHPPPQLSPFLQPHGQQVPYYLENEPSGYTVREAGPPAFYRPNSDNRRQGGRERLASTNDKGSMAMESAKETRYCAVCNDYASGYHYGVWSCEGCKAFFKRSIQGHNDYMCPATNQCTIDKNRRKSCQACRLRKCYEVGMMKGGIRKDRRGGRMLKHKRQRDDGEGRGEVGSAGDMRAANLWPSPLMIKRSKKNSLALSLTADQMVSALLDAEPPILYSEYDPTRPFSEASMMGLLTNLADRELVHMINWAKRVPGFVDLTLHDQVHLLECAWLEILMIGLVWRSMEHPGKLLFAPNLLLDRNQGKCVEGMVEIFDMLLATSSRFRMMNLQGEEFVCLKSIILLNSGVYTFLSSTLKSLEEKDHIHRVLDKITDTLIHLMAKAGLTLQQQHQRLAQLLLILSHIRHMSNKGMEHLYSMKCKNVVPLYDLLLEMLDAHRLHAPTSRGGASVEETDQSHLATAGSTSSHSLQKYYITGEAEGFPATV
Put plainly: Antagonist activity at estrogen receptor. The data set is classed as functional.

Where only a bound is given, the exact number is not on record here.

The term IC50 denotes the concentration that inhibits the measured activity by half. What is called clearance is the volume of plasma or blood freed of the substance per unit of time. Read a high clearance as efficient removal. The half-life is the time in which the quantity being followed falls by half. Low values mean fast loss, high ones slow loss. As usually defined, the bioavailability is dose-corrected exposure relative to a reference, in per cent. The low end stands for little systemic uptake, the high end for much systemic uptake.

Sequence of Voltage-gated inwardly rectifying potassium channel KCNH2 (Q12809 whole entry): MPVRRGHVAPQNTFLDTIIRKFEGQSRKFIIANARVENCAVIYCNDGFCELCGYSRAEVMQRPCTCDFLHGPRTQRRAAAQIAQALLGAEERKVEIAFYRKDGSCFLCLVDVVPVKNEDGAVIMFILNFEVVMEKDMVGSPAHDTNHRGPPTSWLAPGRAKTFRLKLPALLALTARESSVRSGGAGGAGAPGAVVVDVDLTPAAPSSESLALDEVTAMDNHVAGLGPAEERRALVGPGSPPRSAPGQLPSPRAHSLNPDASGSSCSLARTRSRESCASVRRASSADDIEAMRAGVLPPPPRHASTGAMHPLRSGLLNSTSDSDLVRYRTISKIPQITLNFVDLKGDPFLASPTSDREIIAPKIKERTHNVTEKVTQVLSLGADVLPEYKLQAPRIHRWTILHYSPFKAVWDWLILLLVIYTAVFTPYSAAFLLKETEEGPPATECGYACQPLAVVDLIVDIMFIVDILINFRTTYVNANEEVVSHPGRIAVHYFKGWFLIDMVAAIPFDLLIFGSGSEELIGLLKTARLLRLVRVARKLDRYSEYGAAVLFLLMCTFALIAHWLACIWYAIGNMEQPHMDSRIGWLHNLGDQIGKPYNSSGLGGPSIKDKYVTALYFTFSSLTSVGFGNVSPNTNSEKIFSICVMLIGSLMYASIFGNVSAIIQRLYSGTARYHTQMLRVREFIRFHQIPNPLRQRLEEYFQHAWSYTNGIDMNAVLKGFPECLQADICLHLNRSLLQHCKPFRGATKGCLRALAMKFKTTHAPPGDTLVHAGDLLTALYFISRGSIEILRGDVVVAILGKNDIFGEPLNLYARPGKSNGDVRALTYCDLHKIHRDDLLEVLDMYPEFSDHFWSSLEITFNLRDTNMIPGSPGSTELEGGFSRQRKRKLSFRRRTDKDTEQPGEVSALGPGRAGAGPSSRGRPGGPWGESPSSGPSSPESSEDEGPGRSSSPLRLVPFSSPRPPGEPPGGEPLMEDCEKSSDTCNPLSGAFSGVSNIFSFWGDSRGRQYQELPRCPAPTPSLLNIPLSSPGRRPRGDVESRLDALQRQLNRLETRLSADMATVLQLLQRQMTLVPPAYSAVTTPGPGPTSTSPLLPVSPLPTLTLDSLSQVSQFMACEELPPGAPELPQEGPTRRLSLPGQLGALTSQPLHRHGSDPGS

`N#Cc1ccc(N2N=C(c3ccc4[nH]c(=O)oc4c3)C[C@@H]2c2ccc(F)cc2)cc1`: the IC50 came to 0.041 µM in data set [1] and 0.029 µM in data set [2].

Take `N#Cc1ccc(N2N=C(c3ccc(C(=O)O)cc3)C[C@@H]2C2CCCC2)cc1Cl`: the IC50 is 0.016 µM in [1], above 4.31 µM against Progesterone receptor, above 10 µM at Androgen receptor and above 10 µM against Glucocorticoid receptor. Further, the clearance in [3] turned out to be 34 mL/min/kg. Further, the Vd in data set [4] turned out to be 3.6 L/kg. The compound also had a half-life in [5] of 1.2 h. The compound also showed a bioavailability in [6] of 100%.

`COc1cc(C2=NN(c3ccc(C#N)c(Cl)c3)[C@@H](C3CCCC3)C2)ccc1C(=O)O`: the IC50 at Estrogen receptor was above 10 µM. The compound also had a clearance in [3] of 24 mL/min/kg. In addition, the Vd in data set [4] worked out at 3.9 L/kg. In data set [5], this compound had a half-life of 1.9 h. Moreover, the bioavailability in data set [6] was found to be 57%.

In the case of `Cc1cc(N2N=C3c4ccc(C(=O)O)cc4CO[C@@H]3[C@@H]2C2CCCC2)ccc1C#N`, the IC50 in [1] is 0.026 µM; against Progesterone receptor, 1.88 µM; on Androgen receptor, above 10 µM; on Glucocorticoid receptor, above 10 µM. In [3], this compound registered a clearance of 4.6 mL/min/kg. Moreover, in [4], the Vd came out at 0.6 L/kg. For the same compound, the half-life in data set [5] is 1.6 h. The compound also displayed a bioavailability in [6] of 57%.

On to `CC(=O)S[C@@H]1CC2=CC(=O)CC[C@]2(C)[C@H]2CC[C@@]3(C)[C@@H](CC[C@@]34CCC(=O)O4)[C@H]12` [SPIRONOLACTONE], for which the results for the IC50 against Estrogen receptor and against Glucocorticoid receptor were 5.7 µM and 6.92 µM, respectively.

Regarding `O=C(O)c1ccc(N2N=C(c3ccc4[nH]c(=O)oc4c3)CC2c2ccc(F)cc2)cc1` (racemic), the IC50 was 0.784 µM in data set [1] and above 30 µM in [2].

`COC(=O)[C@@H]1CC2=CC(=O)CC[C@]2(C)[C@@]23O[C@@H]2C[C@@]2(C)[C@@H](CC[C@@]24CCC(=O)O4)[C@H]13` [EPLERENONE] yielded an IC50 against Estrogen receptor above 10 µM.

As for `N#Cc1ccc(N2N=C(c3ccc(C(=O)O)cc3)C[C@@H]2c2ccc(F)cc2)cc1Cl`, the 50% inhibitory concentration (IC50) in data set [1] is 0.031 µM; at Progesterone receptor, 2.08 µM; on Androgen receptor, above 8.92 µM; against Glucocorticoid receptor, above 10 µM. In data set [3], the clearance was determined as 6.9 mL/min/kg. For the same compound, in data set [4], the Vd is 1.5 L/kg. Also, the half-life in data set [5] is 2.6 h. Besides, the bioavailability in data set [6] was 46%.

Take `N#Cc1ccc(N2N=C3c4ccc(C(=O)O)cc4CC[C@@H]3[C@@H]2C2CCCC2)cc1` (racemic): the half-maximal inhibitory concentration (IC50) was 0.089 µM in data set [1], 3.18 µM at Progesterone receptor, above 10 µM on Androgen receptor and above 10 µM at Glucocorticoid receptor.

In the case of `N#Cc1ccc(N2N=C(c3ccc4[nH]c(=O)oc4c3)CC2c2ccc(C(=O)O)cc2)cc1` (racemic), the IC50 is above 10 µM in data set [1] and above 30 µM in [2].

As for `N#Cc1ccc(N2N=C(c3ccc(C(=O)O)cc3)CC2c2ccc(F)cc2)cc1` (racemic), the IC50 is 0.246 µM in data set [1] and above 30 µM in data set [2].
